pEC50, pIC50: −log10 of the molar value.
What was measured:
SU-DHL-1 [1] = assay: Induction of apoptosis in human SU-DHL-1 cells assessed as caspase activation in presence of AZD5991 incubated for 6 hrs by caspaseGlo 3/7 reagent based assay; type: functional, cell-based; conditions: SU-DHL-1, 6 h
[2] = Lipophilicity, log D of compound in 1-octanol at pH 7.4 incubated for 4 hrs by HPLC-UV analysis; type: physicochemical; conditions: 1-octanol / aqueous phase at pH 7.4, pH 7.4
BCL2A1/BID = target: T1, BCL2A1/BID (Homo sapiens, UniProt Q16548); assay: Inhibition of BFL-1/ BH3 (unknown origin) interaction incubated for 2 hrs by TR-FRET assay; type: protein assay
T1 sequence (Q16548 whole entry): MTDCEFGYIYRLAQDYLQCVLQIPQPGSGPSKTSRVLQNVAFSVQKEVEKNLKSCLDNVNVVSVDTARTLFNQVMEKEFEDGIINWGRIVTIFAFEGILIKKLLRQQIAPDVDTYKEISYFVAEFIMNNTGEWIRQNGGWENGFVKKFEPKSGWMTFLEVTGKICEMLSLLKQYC
T1 sequence (P55957 whole entry): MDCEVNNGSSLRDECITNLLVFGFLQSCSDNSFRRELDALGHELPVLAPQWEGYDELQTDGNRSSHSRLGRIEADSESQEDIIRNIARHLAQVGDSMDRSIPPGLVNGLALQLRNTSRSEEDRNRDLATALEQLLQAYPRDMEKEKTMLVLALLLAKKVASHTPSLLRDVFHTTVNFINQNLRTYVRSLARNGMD

[3] = Metabolic stability in rat hepatocytes assessed as intrinsic clearance measured per 10^6 cells; type: ADME, cell-based, Hepatocyte
[4] = Metabolic stability in mouse hepatocytes assessed as intrinsic clearance measured per 10^6 cells; type: ADME, cell-based, Hepatocyte; conditions: read-out: CLH
[5] = Metabolic stability in human hepatocytes assessed as intrinsic clearance measured per 10^6 cells; type: ADME, cell-based, Hepatocyte; conditions: read-out: CLH
SU-DHL-1 [6] = assay: Antiproliferative activity against human SU-DHL-1 cells assessed as cell viability incubated for 24 hrs by celltiter-glo assay; type: functional, cell-based; conditions: SU-DHL-1, 24 h
[7] = Metabolic stability in human liver microsome assessed as intrinsic clearance; type: ADME; conditions: human liver microsomes, read-out: CLH
[8] = GSH reactivity in PBS buffer at pH 7.4 assessed as half life by LC-UV/MS analysis; type: physicochemical
[9] = target: Induced myeloid leukemia cell differentiation protein Mcl-1 (Homo sapiens, UniProt Q07820); assay: Inhibition of MCL1 (unknown origin) by FRET assay
Induced myeloid leukemia cell differentiation protein Mcl-1, sequence (Q07820 whole entry): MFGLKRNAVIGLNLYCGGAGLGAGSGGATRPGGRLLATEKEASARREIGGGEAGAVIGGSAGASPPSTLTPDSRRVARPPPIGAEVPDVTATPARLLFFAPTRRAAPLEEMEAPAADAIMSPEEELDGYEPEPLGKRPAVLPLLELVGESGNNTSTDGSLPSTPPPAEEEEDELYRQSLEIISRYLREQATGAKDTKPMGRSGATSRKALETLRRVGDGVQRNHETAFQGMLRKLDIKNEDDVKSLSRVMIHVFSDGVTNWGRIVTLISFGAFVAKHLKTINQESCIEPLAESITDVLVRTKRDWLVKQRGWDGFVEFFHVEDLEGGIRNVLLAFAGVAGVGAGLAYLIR

Compound	pEC50 (SU-DHL-1 [1])	pIC50 (BCL2A1/BID)	further results
C=CC(=O)N(c1ccc(O[C@@H]2CC[C@@H](NC(=O)N[C@@H]3CCS(=O)(=O)C3)C2)c(F)c1)[C@@H](C)c1ccc(C(F)(F)F)c(C#N)c1	6.04	7.06	logD at 4 h [2]: 3.2; hepatocyte CLint ([3]; rat hepatocytes, read-out: CLH): 262 µL/min/1e6 cells
CNS(=O)(=O)OCC(=O)N(Cc1ccc(Cl)cc1)c1ccc(O[C@@H]2CC[C@@H](N)C2)cc1		5.19	
C=CC(=O)N(c1ccc(O[C@@H]2CC[C@@H](NC(=O)N[C@@H]3CCS(=O)(=O)C3)C2)c(F)c1)[C@@H](CC(C)(C)O)c1ccc(Cl)cc1	7.72	8.38	hepatocyte CLint [4]: 49 µL/min/1e6 cells; logD at 4 h [2]: 3.1; hepatocyte CLint [5]: 5.3 µL/min/1e6 cells; pEC50 (SU-DHL-1 [6]): 7.31; hepatocyte CLint ([3]; rat hepatocytes, read-out: CLH): 52 µL/min/1e6 cells
C=C(Cl)C(=O)N(Cc1ccc(C(F)(F)F)cc1)c1ccc(O[C@@H]2CC[C@@H](N)C2)cc1 (racemic)		6.00	microsomal CLint [7]: 7.8 µL/min/mg; half-life [8]: 1.42 h; logD at 4 h [2]: 2.4; hepatocyte CLint ([3]; hepatocytes): 52 µL/min/1e6 cells
C=CC(=O)N(c1ccc(O[C@@H]2CC[C@@H](NC(=O)NC3CCS(=O)(=O)C3)C2)cc1)[C@@H](C)c1ccc(Cl)cc1 (mixture of isomers)	6.96	7.40	
CC#CC(=O)N(c1ccc(O[C@@H]2CC[C@@H](N)C2)cc1)[C@@H](C)c1ccc(Cl)cc1		6.52	
C=C(F)C(=O)N(Cc1ccc(C(F)(F)F)cc1)c1ccc(O[C@@H]2CC[C@@H](N)C2)cc1 (racemic)		< 5.11	
C=CC(=O)N(c1ccc(O[C@@H]2CC[C@@H](N)C2)cc1)[C@@H](CNS(C)(=O)=O)c1ccc(Cl)cc1	6.46	7.51	pIC50 [9]: < 4.00
C=CC(=O)N(c1ccc(O[C@@H]2CC[C@@H](N)C2)c(C)c1)[C@@H](C)c1ccc(Cl)cc1	6.19	7.11	
C=CC(=O)N(c1ccc(O[C@@H]2CC[C@@H](N)C2)c(Cl)c1)[C@@H](C)c1ccc(Cl)cc1	6.92	7.62	
C=CC(=O)N(c1ccc(O[C@@H]2CC[C@@H](N)C2)cc1)[C@H](CNS(C)(=O)=O)c1ccc(Cl)cc1	< 5.00	5.55	
C=CC(=O)N(c1ccc(O[C@@H]2CC[C@@H](N)C2)c(C#N)c1)[C@@H](C)c1ccc(Cl)cc1	6.92	7.85	
C=CC(=O)N(c1ccc(O[C@@H]2CC[C@@H](NC(=O)CCCN(C)C)C2)cc1)[C@@H](C)c1ccc(Cl)cc1	6.21	7.13	
CN1CCC[C@@H]1/C=C/C(=O)N(Cc1ccc(Cl)cc1)c1ccc(O[C@@H]2CC[C@@H](N)C2)cc1		6.62	
C=CC(=O)N(c1ccc(O[C@@H]2CC[C@@H](N)C2)cc1)[C@@H](C[C@H](C)O)c1ccc(Cl)cc1	6.85	7.74	pEC50 (SU-DHL-1 [6]): 6.77
C=CC(=O)N(c1ccc(O[C@@H]2CC[C@@H](N)C2)c(F)c1)[C@@H](CC(C)(C)O)c1ccc(Cl)cc1	7.38	7.96	hepatocyte CLint [4]: 15 µL/min/1e6 cells; logD at 4 h [2]: 1.5; hepatocyte CLint [5]: 5.9 µL/min/1e6 cells; pEC50 (SU-DHL-1 [6]): 7.24; hepatocyte CLint ([3]; rat hepatocytes, read-out: CLH): 7.3 µL/min/1e6 cells
C[C@@H](c1ccc(Cl)cc1)N(C(=O)/C=C/CN(C)C)c1ccc(O[C@@H]2CC[C@@H](N)C2)cc1		7.05	
C=CC(=O)N(c1ccc(O[C@@H]2CC[C@@H](N)C2)cc1F)[C@@H](C)c1ccc(Cl)cc1	6.39	7.32	

Reference: ChEMBL document CHEMBL6074680, “Structure-Based Discovery of a Series of Covalent, Orally Bioavailable, and Selective BFL1 Inhibitors” (J Med Chem, 2024)
